The source of these data is patent US9587239B2, “Methods of identifying and treating glioblastoma” (THE TRANSLATIONAL GENOMICS RESEARCH INSTITUTE, priority 2008, dated 2017).

Structures are written as SMILES.

One test has as its system T98G cells. As to the kind of experiment: Alamar Blue cell viability assay, T98G. Particulars: Homo sapiens, 48 hours. The class given is cell-based. As for the experimental part:
(§1) The Alamar Blue assay was used to assess viability as described previously (See Reference 29, incorporated by reference in its entirety). Briefly, 4000 cells of each population were seeded in quadruplicate wells of 96-well plastic plates in 200 μl of culture medium supplemented with 10% fetal bovine serum. Cells were treated with various conditions and the assay was developed 48 hours later. Alamar Blue was then added to the cells in a volume of 20 μl (10% of total volume) per well and the plates were incubated for 6 hours at 37° C. The plates were read on a fluorescence plate reader (excitation, 560 nm; emission, 600 nm). Averages of the fluorescence values were calculated and normalized to controls without Temozolomide.
(Alamar Blue is a resazurin reagent that responds to reducing activity.)

A further test relates to SF767 cells. Kind of test: Alamar Blue cell viability assay, SF767. The following applies: Homo sapiens, 48 hours. The class given is cell-based. Here is the method:
as §1

By IC50 is commonly meant the concentration that gives 50% inhibition. With `Cn1nnc2c(C(N)=O)ncn2c1=O` [Temozolomide], the IC50 was determined as 250 µM in the test on T98G cells and 125 µM in the test with SF767 cells.
